Data: ChEMBL document CHEMBL1131268, “Preparation of biotinylated allosamidins with strong chitinase inhibitory activities” (Bioorg Med Chem Lett, 1998)

Assays:
Chitinase (Trichoderma) [1] = test: Compound was evaluated for inhibitory activity against Trichoderma Chitinase in presence of allosamidin at the dose of 31 ug/mL
Chitinase (Trichoderma) [2] = test: Compound was evaluated for inhibitory activity against Trichoderma Chitinase in presence of allosamidin at the dose of 125 ug/mL
Chitinase (Trichoderma) [3] = test: Compound was evaluated for inhibitory activity against Trichoderma Chitinase in presence of allosamidin at the dose of 7.8 ug/mL
Chitinase (Trichoderma) [4] = test: Compound was evaluated for inhibitory activity against trichoderma chitinase in presence of allosamidin at the dose of 500 ug/mL

With `CC(=O)NC(/C=N/NC(=O)CCCCCNC(=O)CCCCC1SC[C@@H]2NC(=O)N[C@H]12)C(OC(/C=N/NC(=O)CCCCCNC(=O)CCCCC1SC[C@@H]2NC(=O)N[C@H]12)CO)OC1C(CO)OC(OC2C(O)C3N=C(N(C)C)OC3C2CO)C(NC(C)=O)C1O` (some centres undefined) the inhibition (Chitinase (Trichoderma) [1]) was 21.9%, the inhibition (Chitinase (Trichoderma) [2]) was 42.2% and the inhibition (Chitinase (Trichoderma) [3]) was 7.8%. It also gave an inhibition (Chitinase (Trichoderma) [4]) of 65.6%.
